ChEMBL document CHEMBL1201862, “PubChem BioAssay data set” (2004)
Active and inactive are the calls of the source.

Assays:
SN12K1 = assay: cells; type: functional; conditions: Homo sapiens
P388/ADR = assay: cells; type: functional; conditions: Mus musculus
P388 = assay: cells; type: functional; conditions: Mus musculus
[1] = target: T1, Corticotropin-releasing factor receptor 2/Corticotropin-releasing factor-binding protein (Homo sapiens, UniProt P24387+Q13324); assay: Dose Response confirmation of uHTS hits for small molecule antagonists of the CRF-binding protein and CRF-R2 receptor complex.; type: functional; conditions: read-out: IC50_Mean
T1 sequence (Q13324 whole entry): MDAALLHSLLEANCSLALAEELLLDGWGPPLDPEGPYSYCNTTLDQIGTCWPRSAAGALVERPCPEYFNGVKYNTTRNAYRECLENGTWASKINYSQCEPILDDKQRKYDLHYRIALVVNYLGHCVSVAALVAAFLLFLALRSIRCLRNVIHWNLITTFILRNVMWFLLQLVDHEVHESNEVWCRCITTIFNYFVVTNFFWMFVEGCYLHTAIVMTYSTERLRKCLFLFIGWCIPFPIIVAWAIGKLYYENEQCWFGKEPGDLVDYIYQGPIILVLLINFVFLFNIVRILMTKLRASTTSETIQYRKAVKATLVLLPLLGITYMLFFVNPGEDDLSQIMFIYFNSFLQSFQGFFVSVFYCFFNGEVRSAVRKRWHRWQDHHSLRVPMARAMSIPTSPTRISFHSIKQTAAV
T1 sequence (P24387 whole entry): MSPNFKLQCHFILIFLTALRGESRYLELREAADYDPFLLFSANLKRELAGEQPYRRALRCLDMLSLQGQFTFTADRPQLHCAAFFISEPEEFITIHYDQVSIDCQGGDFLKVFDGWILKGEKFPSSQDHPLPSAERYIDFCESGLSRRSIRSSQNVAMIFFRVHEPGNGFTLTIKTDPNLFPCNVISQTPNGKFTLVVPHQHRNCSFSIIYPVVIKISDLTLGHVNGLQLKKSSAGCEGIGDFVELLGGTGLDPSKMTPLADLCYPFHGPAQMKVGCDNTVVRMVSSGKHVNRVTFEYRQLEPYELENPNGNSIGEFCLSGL

[2] = target: T1, Corticotropin-releasing factor receptor 2/Corticotropin-releasing factor-binding protein; assay: activators of CRF receptor 2 with binding protein – uHTS hits, confirmation (AID 602473); type: functional; conditions: read-out: EC50_Mean
[3] = NIH-3T3 fibroblast cytotoxicity, dose response, cytotoxicity control, cell-based, fluorescence, Alamar Blue, secondary assay (AID 2327); type: functional;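 note: NIH-3T3 mouse fibroblasts cultured with fluconazole at 8 µg/mL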
[4] = Luminescence Cell-Based Dose Retest to Confirm Inhibitors of Cancer Stem Cells. [Related pubchem assays (depositor defined):AID2717, AID2721]; type: functional; conditions: Homo sapiens
[5] = C. albicans growth with fluconazole, confirmation, fluorescence, retest (AID 2467); type: functional, cell-based
[6] = target: Heat shock protein HSP 90-alpha (Homo sapiens, UniProt P07900); type: functional, organism-based
[7] = target: T2, High affinity choline transporter 1 (Homo sapiens, UniProt Q9GZV3); assay: CHT inhibitors, dose response, cell-based, 5-point CRC, membrane potential dye (AID 504840); type: functional
T2 sequence (Q9GZV3 whole entry): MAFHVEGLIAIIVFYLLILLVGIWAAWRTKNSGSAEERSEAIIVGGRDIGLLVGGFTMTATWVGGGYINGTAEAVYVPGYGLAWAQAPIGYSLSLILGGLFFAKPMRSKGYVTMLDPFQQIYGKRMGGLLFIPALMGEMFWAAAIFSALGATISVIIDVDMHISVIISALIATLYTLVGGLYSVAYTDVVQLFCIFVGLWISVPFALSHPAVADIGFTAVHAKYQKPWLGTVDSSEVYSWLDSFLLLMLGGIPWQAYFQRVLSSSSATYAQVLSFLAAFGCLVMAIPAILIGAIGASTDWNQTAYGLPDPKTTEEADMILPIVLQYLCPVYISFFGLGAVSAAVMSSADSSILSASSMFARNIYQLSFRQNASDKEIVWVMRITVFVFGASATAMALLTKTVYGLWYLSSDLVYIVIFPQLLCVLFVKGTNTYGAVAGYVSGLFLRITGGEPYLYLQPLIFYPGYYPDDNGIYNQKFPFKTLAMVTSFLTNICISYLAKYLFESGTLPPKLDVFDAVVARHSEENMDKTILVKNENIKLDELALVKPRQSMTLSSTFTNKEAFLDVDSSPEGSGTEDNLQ

INS1 = assay: beta cell apoptosis inhibitors, cytokine rescue, dose response, luminescence, retest (AID 449756); type: functional, cell-based; conditions: Rattus norvegicus;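 note: cell death triggered by IL-1 beta plus TNF-alpha plus IFN-gamma mixture; protective hits raise ATP signal compared with cytokine alone wells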
[8] = test system: Streptococcus sp. 'group A'; assay: growth inhibition of control SK(-) GAS strain, dose response, counter-screen for streptokinase expression inhibitor project, luminescence, kanamycin, BacTiterGlo, confirmation (AID 1900); type: functional, organism-based
[9] = target: T3, Polyadenylate-binding protein 1 (Homo sapiens, UniProt P11940); assay: PABP1 MLLE–PAM2 binding inhibitor potency, dose response, biochemical, fluorescence polarization, FITC-PAM2 peptide (AID 602259); type: functional; conditions: read-out: IC50_Mean
Streptococcus = assay: Group A Streptococcus viability loss, dose response, counter-screen for streptokinase expression inhibitor project, luminescence, BacTiterGlo (AID 1915); type: functional, organism-based;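 note: potency for reduction of bacterial viability or growth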
[10] = target: T3, Polyadenylate-binding protein 1; assay: PABP1 MLLE–PAM2 interaction inhibitors, dose response, miRNA deadenylation inhibitor project, biochemical, fluorescence polarization, Cy5-PAM2 peptide, secondary (AID 602260); type: functional; conditions: read-out: IC50_Mean
[11] = THP-1 cell cytotoxicity, dose response, cytotoxicity control for non-replicating M. tuberculosis project (AID 489025); type: functional
[12] = Vero E6 cell cytotoxicity, dose response, cytotoxicity control for non-replicating M. tuberculosis project, secondary assay (AID 492998); type: functional, VeroE6; conditions: Vero C1008
cells = type: functional
[13] = inhibitors of HIV Env-driven cell fusion, dose response, cherry-pick (AID 652057); type: functional, cell-based
[14] = inhibitors of clade B AD8 Env fusion, dose response, cell-based, cherry-pick (AID 652062); type: functional;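 note: luciferase signal from cell-cell fusion driven by HIV-1 clade B AD8 Env; potency is for inhibitors of fusion seen as a drop in luminescence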
[15] = target: T4, Zinc finger protein mex-5 (Caenorhabditis elegans, UniProt Q9XUB2); assay: MEX-5/TCR-2 RNA interaction inhibitors, dose response, biochemical, C. elegans, fluorescence polarization (AID 1960)
T4 sequence (Q9XUB2 whole entry): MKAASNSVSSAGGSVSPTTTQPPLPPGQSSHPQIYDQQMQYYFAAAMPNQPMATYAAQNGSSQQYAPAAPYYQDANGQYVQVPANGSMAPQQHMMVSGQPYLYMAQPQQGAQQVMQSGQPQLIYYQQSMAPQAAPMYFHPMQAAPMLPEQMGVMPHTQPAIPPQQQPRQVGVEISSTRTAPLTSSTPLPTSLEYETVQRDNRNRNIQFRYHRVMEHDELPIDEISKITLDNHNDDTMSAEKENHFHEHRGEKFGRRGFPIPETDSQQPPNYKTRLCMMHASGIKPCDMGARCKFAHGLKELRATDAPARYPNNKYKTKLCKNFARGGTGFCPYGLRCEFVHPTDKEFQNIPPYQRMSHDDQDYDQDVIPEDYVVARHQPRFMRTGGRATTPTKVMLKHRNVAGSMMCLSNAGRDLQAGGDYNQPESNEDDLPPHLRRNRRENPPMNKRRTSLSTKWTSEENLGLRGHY

[16] = target: T5, RNA-binding protein pos-1 (Caenorhabditis elegans, UniProt G5EF15); assay: inhibitors of POS-1/mex-3 RNA binding, dose response, biochemical, fluorescence polarization (AID 1964);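 note: purified POS-1 fused to maltose binding protein made in E. coli; potency of compounds blocking POS-1 binding to fluorescent RNA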
T5 sequence (G5EF15 whole entry): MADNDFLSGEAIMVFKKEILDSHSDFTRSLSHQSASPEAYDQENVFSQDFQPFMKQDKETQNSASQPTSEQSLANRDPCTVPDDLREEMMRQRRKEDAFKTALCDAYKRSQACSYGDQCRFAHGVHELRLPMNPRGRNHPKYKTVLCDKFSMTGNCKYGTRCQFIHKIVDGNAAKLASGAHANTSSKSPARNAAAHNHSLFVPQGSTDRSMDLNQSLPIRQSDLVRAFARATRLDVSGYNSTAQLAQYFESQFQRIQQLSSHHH

[17] = target: T6, Carboxy-terminal domain RNA polymerase II polypeptide A small phosphatase 1 (Homo sapiens, UniProt Q9GZU7); assay: inhibitors of CTDSP1, concentration-response testing, biochemical assay, absorbance-based, actives from ultra-high-throughput screening (AID 540297); type: functional
T6 sequence (Q9GZU7 whole entry): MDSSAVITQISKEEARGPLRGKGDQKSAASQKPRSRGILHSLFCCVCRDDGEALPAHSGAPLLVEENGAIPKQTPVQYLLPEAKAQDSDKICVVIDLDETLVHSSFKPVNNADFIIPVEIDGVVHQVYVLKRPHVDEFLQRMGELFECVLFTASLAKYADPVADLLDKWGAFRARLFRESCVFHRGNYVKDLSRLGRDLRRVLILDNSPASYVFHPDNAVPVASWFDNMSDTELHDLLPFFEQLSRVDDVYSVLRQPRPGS

Genome polyprotein = Genome polyprotein (dengue virus type 2, UniProt P29990); assay: Dengue-2 NS5 methyltransferase inhibitors, primary screen, biochemical, confirmation dose response (AID 588689); type: functional
Genome polyprotein, sequence (P29990 2492-3391 limits assumed): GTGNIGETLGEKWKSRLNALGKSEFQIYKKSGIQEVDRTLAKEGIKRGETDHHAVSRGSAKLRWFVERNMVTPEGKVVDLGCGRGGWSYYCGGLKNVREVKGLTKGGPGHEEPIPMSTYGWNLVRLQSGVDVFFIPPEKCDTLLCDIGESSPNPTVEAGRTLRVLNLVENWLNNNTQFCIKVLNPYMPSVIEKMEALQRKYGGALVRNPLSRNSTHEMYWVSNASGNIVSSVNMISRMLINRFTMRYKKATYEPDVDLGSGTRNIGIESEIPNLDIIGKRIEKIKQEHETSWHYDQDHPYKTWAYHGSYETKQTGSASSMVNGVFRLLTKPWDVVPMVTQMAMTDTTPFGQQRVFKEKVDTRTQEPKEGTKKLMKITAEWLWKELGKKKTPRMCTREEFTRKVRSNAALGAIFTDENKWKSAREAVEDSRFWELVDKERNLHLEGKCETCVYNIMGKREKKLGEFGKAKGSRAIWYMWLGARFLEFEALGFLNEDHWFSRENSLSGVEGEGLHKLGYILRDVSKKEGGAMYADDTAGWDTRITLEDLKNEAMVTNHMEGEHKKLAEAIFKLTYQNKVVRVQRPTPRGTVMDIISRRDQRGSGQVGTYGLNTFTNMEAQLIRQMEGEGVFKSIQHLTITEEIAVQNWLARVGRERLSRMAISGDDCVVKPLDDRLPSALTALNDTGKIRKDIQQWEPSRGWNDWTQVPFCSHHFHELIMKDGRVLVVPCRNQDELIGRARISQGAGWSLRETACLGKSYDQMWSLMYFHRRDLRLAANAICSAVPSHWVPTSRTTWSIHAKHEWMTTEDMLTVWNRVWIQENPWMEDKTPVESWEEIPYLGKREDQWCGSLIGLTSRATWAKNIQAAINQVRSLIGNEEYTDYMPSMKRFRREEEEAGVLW

T3 sequence (P11940 whole entry): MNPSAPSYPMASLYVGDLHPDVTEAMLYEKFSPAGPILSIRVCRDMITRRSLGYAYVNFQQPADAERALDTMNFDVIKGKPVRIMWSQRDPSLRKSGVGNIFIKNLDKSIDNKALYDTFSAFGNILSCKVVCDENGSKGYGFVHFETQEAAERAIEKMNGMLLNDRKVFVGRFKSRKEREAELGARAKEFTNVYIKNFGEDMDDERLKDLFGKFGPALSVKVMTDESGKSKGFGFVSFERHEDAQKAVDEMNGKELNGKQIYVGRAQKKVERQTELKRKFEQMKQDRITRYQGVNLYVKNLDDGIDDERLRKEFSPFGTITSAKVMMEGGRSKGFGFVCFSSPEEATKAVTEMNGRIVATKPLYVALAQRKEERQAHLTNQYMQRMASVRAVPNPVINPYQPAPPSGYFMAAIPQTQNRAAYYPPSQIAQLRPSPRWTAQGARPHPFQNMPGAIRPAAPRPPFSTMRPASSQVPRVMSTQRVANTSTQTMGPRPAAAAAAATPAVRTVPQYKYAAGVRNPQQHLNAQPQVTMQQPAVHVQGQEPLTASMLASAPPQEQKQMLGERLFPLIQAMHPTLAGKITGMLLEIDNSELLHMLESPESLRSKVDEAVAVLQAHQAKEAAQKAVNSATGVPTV

Structure (SMILES)	GI50 (SN12K1)	GI50 (P388/ADR)	GI50 (P388)	IC50 [1]	EC50 [2]	also measured
CNC(=O)OCc1nc(SC(C)C)n(C)c1COC(=O)NC	> 100 µM (inactive)	83.6 µM (inactive)	46.9 µM (inactive)			
COc1cc2c(cc1NC(=O)COC(=O)CNC(=O)c1ccccc1)oc1ccccc12				> 47.1 µM (inactive)	> 53 µM (inactive)	
O=c1oc2ccccc2c(O)c1Cc1cc(Cl)c2cccnc2c1O						EC50 [3]: 76.3 µM (active); AC50 [4]: 1.09 µM (active); EC50 [5]: > 38 µM (not active); AC50 [6]: 7.2 µM (active); IC50 [7]: 15.2 µM (active)
COc1ccc(CCn2c(=O)c3cccnc3n(Cc3cccc([N+](=O)[O-])c3)c2=O)cc1OC				> 47.1 µM (inactive)	> 53 µM (inactive)	
CCN1CCN(C(c2ccc(C(F)(F)F)cc2)c2ccc3cccnc3c2O)CC1 (stereo not given)						AC50 (INS1): 2.15 µM (active); EC50 [8]: 3.02 µM (active); AC50 [6]: 1.36 µM (active); IC50 [9]: > 66 µM (inactive); EC50 (Streptococcus): 3.5 µM (active); IC50 [10]: > 66 µM (inactive)
COc1ccccc1N1CCN(C(c2ccc(Cl)cc2)c2nnnn2C(C)(C)C)CC1 (stereo not given)				> 47.1 µM (inactive)	> 53 µM (inactive)	
Cc1ccc(C)c(-c2nnc(NC(=O)c3ccc([N+](=O)[O-])o3)o2)c1						CC50 [11]: 11.7 µM (active); CC50 [12]: 11.6 µM (active); IC50 (cells): < 0.1 µM (active)
O=c1c2ccccc2nnn1CSc1nnc(COc2ccc(Cl)cc2)n1Cc1ccco1						AC50 [6]: 3.26 µM (active); AC50 [13]: 15.2 µM (active); AC50 [14]: 1.12 µM (active)
CC(C)(C)OC(=O)NC(Cc1ccccc1)C(=O)N1CCC(C(=O)NCC(=O)Nc2ccc(F)cc2)CC1 (stereo not given)				> 47.1 µM (inactive)	> 53 µM (inactive)	EC50 [15]: 2.04 µM (inconclusive); EC50 [16]: 7.08 µM (active); IC50 [9]: 28.7 µM (inactive); IC50 [10]: > 66 µM (inactive)
C=CCN(CC(=O)NCc1ccccc1)C(=O)c1csnn1				> 47.1 µM (inactive)	> 53 µM (inactive)	
Cc1cccc(-c2nnc3sc(-c4ccccc4C)nn23)c1						CC50 [11]: 39 µM (active); CC50 [12]: > 20 µM (active); IC50 (cells): 34.6 µM (active)
O=C(NCc1cccc(Cl)c1)C1CCC(=O)N(CC2CCCCC2)C1 (stereo not given)				> 47.1 µM (inactive)	> 53 µM (inactive)	
CNC(=O)C(C)C1CCC2(C)C=CC(=O)C(C)=C2C1O (stereo not given)	> 100 µM (inactive)	> 100 µM (inactive)	> 100 µM (inactive)			
O=C(CC1=NCCN1)c1ccccc1	> 750 µM (inactive)	705 µM (inactive)	> 750 µM (inactive)			
O=C1Nn2c(nc3c(c2=O)CCCC3)/C1=N/Nc1cccc(Cl)c1				19.2 µM (active)	> 53 µM (inactive)	IC50 [17]: 5.32 µM (active); IC50 (Genome polyprotein): 62.4 µM (active)
COc1cc(/C=C/C(=O)O)ccc1C(=O)OCc1ccccc1	> 100 µM (inactive)	> 100 µM (inactive)	> 100 µM (inactive)			
CN(C)CCNC(=O)c1cccc2cc3cc(O)ccc3nc12	0.339 µM (active)	0.288 µM (active)	0.0748 µM (active)			
Nc1cc(O)c2cc(/N=N/c3ccc(/N=N/c4ccc(/N=N/c5ccc6cc(S(=O)(=O)O)cc(S(=O)(=O)O)c6c5)c5ccccc45)c4cc(S(=O)(=O)O)ccc34)c(S(=O)(=O)O)cc2c1	> 100 µM (inactive)		> 100 µM (inactive)			
COc1cc(C2c3cc4c(cc3[C@@H](Oc3ccc(F)cc3)C3COC(=O)[C@H]23)OCO4)cc(OC)c1O (stereo not given in full)	0.31 µM (active)	0.354 µM (active)	0.327 µM (active)			
